# Data published in US20090233979A1, “Indole Derivatives and Their Use as Thyroid Receptor Ligands” (KARO BIO AB, priority 2006, published 2009).
# What was measured:
# hTRβ = molecular target: T1, hTRβ (Homo sapiens, UniProt P10828); assay: TR competition binding assay with filter separation; conditions: for IC50: competition with tracer 125I-T3, full length hTRβ, read-out: TR-β IC50; for binding to the TR-β receptor and/or agonistic activity compared to compounds lacking a substituent in the 2-position on the indole ring: versus Comparative Examples 1, 3, 4
# T1 sequence (P10828 1-461): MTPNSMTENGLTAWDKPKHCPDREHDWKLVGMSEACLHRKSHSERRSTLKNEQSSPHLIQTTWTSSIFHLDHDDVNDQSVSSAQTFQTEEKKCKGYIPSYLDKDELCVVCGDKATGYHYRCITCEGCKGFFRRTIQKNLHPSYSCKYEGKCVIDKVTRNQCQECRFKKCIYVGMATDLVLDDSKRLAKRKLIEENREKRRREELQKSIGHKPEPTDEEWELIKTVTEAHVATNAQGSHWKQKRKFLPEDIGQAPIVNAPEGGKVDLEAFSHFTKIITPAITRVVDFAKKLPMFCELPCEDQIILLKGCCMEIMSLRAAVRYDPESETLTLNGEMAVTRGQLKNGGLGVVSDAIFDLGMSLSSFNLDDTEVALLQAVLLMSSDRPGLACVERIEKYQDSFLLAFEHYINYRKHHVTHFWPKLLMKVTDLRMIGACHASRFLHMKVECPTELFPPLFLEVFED
# Experimental: TR Competition Binding Assay with Filter Separation
# Compounds are tested for their ability to compete with the tracer ^125I-T3 for binding to full length hTRα and hTRβ. Receptor extracts and tracer are diluted in assay buffer (17 mM K2HPO4, 3 mM KH2PO4, 400 mM KCl, 1 mM MgCl2, 0.5 mM EDTA and 8.7% glycerol). ^125I-T3 is diluted to a final concentration of 0.2 nM and receptor is diluted to reach a final count in Trilux Microbeta of approximately 10000 ccpm. […] To 96 well microtiter plates are 100 μl tracer, 4 μl test compound dilution series and 100 μl receptor dilution added. The assay plates are incubated at +4° C. over night (app. 16 hrs incubation). Receptor bound and free tracer are separated over a glass fiber filter ([…] B, PerkinElmer)) on a Tomtec Cellharvester with 18 mM K2HPO4, 2 mM KH2PO4, 0.5 mM EDTA wash buffer. The filters are dried at 60° C. for 1 hour and then merged with a scintillant wax (MELTILEX, PerkinElmer) on a Wallac Microsealer before measuring in a Trilux Microbeta. IC50s, the concentration test compound needed to decrease tracer binding by 50 percent, are generated via analysis of data in XLfit version 2.0 or later with a four parameter logistic model.
# human ThRβ1 = molecular target: T2, human ThRβ1 (Homo sapiens, UniProt P10828); assay: Reporter cell line (TRAF) assay, CHO/hThRβ1, alkaline phosphatase reporter; format: cell-based; conditions: CHO/hThRβ1 reporter cells, 48 hours incubation; read-out: β % agonism
# T2 construct: The cDNAs encoding the full length human ThRα1 and ThRβ1; expressed in transfected cells
# T2 sequence (P10828 1-461): T1 sequence (P10828 1-461)
# Source text: Vector Constructs, Generation of Reporter Cell Lines (TRAF), and Assay Procedure.
# The cDNAs encoding the full length human ThRα1 and ThRβ1 were cloned in the mammalian expression vector pMT-hGH. The pDR4-ALP reporter vector contains one copy of the direct repeat sequence AGGTCA nnnnAGGTCA, fused upstream of the core promoter sequences of the mouse mammary tumor virus long terminal repeat (MMTV), replacing the glucocorticoid response elements. The DR4-MMTV promoter fragment was then cloned in the 5′ end of the cDNA encoding human placental alkaline phosphatase (ALP), followed in the 3′-end by the polyA-signal sequence of the human growth hormone gene. Chinese hamster ovary (CHO) K1 cells (ATCC No. CCL 61) were transfected in two steps, first with the receptor expression vectors pMT-hThRα1 and pMT-ThRβ1, respectively, and the drug resistance vector pSV2-Neo, and in the second step, with the reporter vector pDR4-ALP and the drug resistance vector pKSV-Hyg. Individual drug resistant clones were isolated and selected based on T3 inducibility. One stable reporter cell clone each of CHO/hThRα1 and CHO/hThRβ1 were chosen for further study in response to various thyroid hormone agonists.
# CHO/hThRα1 and CHO/hThRβ1 were seeded in growth medium (Coon's/F12, 10% L-3,5,3′-triiodothyronine and L-thyroxine depleted FCS, 2 mM L-glutamine) in 96-well plates at 20×10^3 cells per well. After 24 hour incubation at 37° C. in humidified chambers, at 5% CO2, conditioned medium was replaced by induction medium (OptiMEM, 2 mM L-glutamine, […] gentamycin) and cells were exposed to the test compounds at serial dilutions, at final DMSO concentration of 0.5%, or to serial dilution of T3 (positive control), to assess agonist activity of test compounds.
# In order to examine antagonistic effect of test compounds, CHO/hThRα1 and […] were exposed to serial dilution of the compounds in the presence of 1 nM T3 (CHO/hThRα1) or 3 nM T3 (CHO/hThRβ1).
# After 48 hours incubation at 37° C. in humidified chambers at 5% CO2 the level of alkaline phosphatase expressed and secreted into the cell culture medium was analyzed by chemiluminescence on MicroBeta Trilux.
IC50 (hTRβ),Emax (human ThRβ1),SMILES,binding to the TR-β receptor and/or agonistic activity compared to compounds lacking a substituent in the 2-position on the indole ring (hTRβ)
51.5 nM,80.2%,"COc1ccc(-c2[nH]c3ccc(Oc4c(Cl)cc(CCC(=O)O)cc4Cl)cc3c2C(C)C)cc1 [Comparative Example 2, 3-{3,5-Dichloro-4-[3-isopropyl-2-(4-methoxy-phenyl)-1H-indol-5-yloxy]-phenyl}-propionic acid, reference compound]",–
7.16 nM,97.5%,"COc1ccc(-c2[nH]c3ccc(Oc4c(Br)cc(CCC(=O)O)cc4Br)cc3c2C)cc1 [Example 3, 3-(3,5-dibromo-4-{[2-(4-methoxyphenyl)-3-methyl-1H-indol-5-yl]oxy}phenyl)propanoic acid]",improved binding to the TR-β receptor and/or improved agonistic activity
2.5 nM,76.9%,"CCc1c(-c2ccc3c(c2)OCO3)[nH]c2ccc(Oc3c(Cl)cc(CCC(=O)O)cc3Cl)cc12 [Example 8, 3-(4-{[2-(1,3-benzodioxol-5-yl)-3-ethyl-1H-indol-5-yl]oxy}-3,5-dichlorophenyl)propanoic acid]",improved binding to the TR-β receptor and/or improved agonistic activity
0.33 nM,70.3%,"CCc1c(-c2ccc3c(c2)OCO3)[nH]c2ccc(Oc3c(Br)cc(CCC(=O)O)cc3Br)cc12 [Example 9, 3-(4-{[2-(1,3-benzodioxol-5-yl)-3-ethyl-1H-indol-5-yl]oxy}-3,5-dibromophenyl)propanoic acid]",improved binding to the TR-β receptor and/or improved agonistic activity
2.77 nM,79.7%,"CCc1c(-c2ccc(OC)cc2)[nH]c2ccc(Oc3c(Br)cc(CCC(=O)O)cc3Br)cc12 [Example 10, 3-(3,5-dibromo-4-{[2-(4-methoxyphenyl)-3-ethyl-1H-indol-5-yl]oxy}phenyl)propanoic acid]",improved binding to the TR-β receptor and/or improved agonistic activity
8.88 nM,70.7%,"CCCc1c(-c2ccc(OC)cc2)[nH]c2ccc(Oc3c(Br)cc(CCC(=O)O)cc3Br)cc12 [Example 13, 3-(3,5-dibromo-4-{[2-(4-methoxyphenyl)-3-propyl-1H-indol-5-yl]oxy}phenyl)propanoic acid]",improved binding to the TR-β receptor and/or improved agonistic activity
326 nM,69.7%,"CCOC(=O)CNc1cc(C)c(Oc2ccc3[nH]cc(C(C)C)c3c2)c(C)c1 [compound 3, reference compound]",–
43.1 nM,39.7%,"Cc1cc(NCC(=O)O)cc(C)c1Oc1ccc2[nH]cc(C(C)C)c2c1 [compound 4, reference compound]",–
